Assay results published in PMC3678123 (Bioorganic & medicinal chemistry letters, 2013).
“Also recorded” adds a separate entry of the source.

target: recombinant human DAAO (Homo sapiens, UniProt P14920); assay: Inhibition of recombinant human DAAO; format: biochemical; details: qualitative statement
Sequence (P14920 whole entry): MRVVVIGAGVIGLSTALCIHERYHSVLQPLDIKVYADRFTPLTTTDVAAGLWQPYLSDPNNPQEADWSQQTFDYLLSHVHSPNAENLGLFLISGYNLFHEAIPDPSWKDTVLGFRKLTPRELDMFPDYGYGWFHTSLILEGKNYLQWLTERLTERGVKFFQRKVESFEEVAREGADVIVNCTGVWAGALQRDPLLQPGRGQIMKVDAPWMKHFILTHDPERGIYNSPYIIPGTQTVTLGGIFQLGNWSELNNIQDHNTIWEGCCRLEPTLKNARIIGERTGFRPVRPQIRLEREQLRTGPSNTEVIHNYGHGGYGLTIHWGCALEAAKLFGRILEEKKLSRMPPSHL

Row | SMILES | DAAO inhibitory potency (in words)
1 | O=c1cc(COc2ccccc2)occ1O [9c] | potency comparable or superior to that of kojic acid
2 | COc1coc(CO)cc1=O [6b] | complete loss of potency; also recorded: completely devoid of any inhibitory activity
3 | COCc1cc(=O)c(O)co1 [9a] | significantly less potent than kojic acid
4 | O=c1cc(COCc2ccccc2)occ1O [9j] | dramatic loss of potency
5 | O=c1ccn(CCc2ccccc2)cc1O [compound 19, 3-hydroxy-1-phenethyl-4(1H)-pyridinone] | no inhibitory activity
6 | CCOCc1cc(=O)c(O)co1 [9b] | significantly less potent than kojic acid
7 | O=c1cc(CCc2ccccc2)occ1O [compound 17, 5-hydroxy-2-phenethyl-4H-pyran-4-one] | slightly more potent than the ether counterpart 9c
8 | O=c1cc(COC2CCCCO2)occ1O (stereo not drawn) [9k] | significantly less potent than kojic acid

tested on: DAAO; assay: not given; details: cited from earlier work

Row | SMILES | IC50 [µM]
9 | O=C(O)c1cc(CCc2ccccc2)c[nH]1 [5c] | < 1
10 | O=C(O)c1cc[nH]n1 [5b, 1H-pyrazole-3-carboxylic acid] | < 100
11 | O=c1oc2ccccc2cc1O [2b, 3-hydroxychromen-2-one] | 0.44
12 | O=c1[nH]c2c(F)cc(F)cc2n1O [compound 3, 4,6-Difluoro-1-hydroxy-1Hbenzo[d]imidazol-2(3H)-one] | 0.08
13 | Oc1noc2cc(Cl)ccc12 [compound 1, 6-chlorobenzo[d]isoxazol-3-ol] | 0.188
14 | O=C(O)c1cc(CCc2ccccc2)[nH]n1 [5d] | < 1
15 | O=C(O)c1ccc[nH]1 [5a, pyrrole-2-carboxylic acid] | < 10
